For series [1], the target named is LINC-PINT. Kind of series: HEK293-TLR7, 100 nM ASO, then resiquimod.
For series [2], the target named is LINC-PINT. Description: HEK293-TLR8, 100 nM ASO, then resiquimod.

Strand notation (5' to 3'): a small letter for the sugar, then the base; units joined by * are phosphorothioate-linked, units joined directly phosphodiester-linked; [ ] holds rarer units or linkages, { } end groups; capitals alone tell only the bases. d = 2'-deoxy (DNA); m = 2'-O-methyl

For the substance “mA*mC*mC*mC*mU*dT*dC*dT*dC*dT*dC*dT*dG*dG*dT*mC*mC*mC*mA*mU”, in the series with LINC-PINT [1], the TLR7 signal (NF-kB luciferase) (% of resiquimod alone) came to 43.4. Further, the TLR8 potentiation (NF-kB luciferase) (fold of resiquimod alone) with LINC-PINT [2] was 2.55.
Consider “mA*mG*mC*mC*mG*dA*dA*dC*dA*dG*dA*dA*dG*dG*dA*mG*mC*mG*mU*mC”, for which the TLR7 signal (NF-kB luciferase) (% of resiquimod alone) in the series with LINC-PINT [1] amounted to 27.7. Further, the TLR8 potentiation (NF-kB luciferase) (fold of resiquimod alone) with LINC-PINT [2] is 2.54.
“mA*mG*mU*mU*mU*dA*dT*dA*dG*dA*dT*dT*dT*dC*dA*mA*mG*mU*mA*mG” showed a TLR7 signal (NF-kB luciferase) (% of resiquimod alone) with LINC-PINT [1] of 37.6. Moreover, the TLR8 potentiation (NF-kB luciferase) (fold of resiquimod alone) with LINC-PINT [2] is 3.06.
With “mA*mU*mG*mA*mC*dA*dT*dT*dT*dC*dG*dT*dG*dG*dC*mU*mC*mC*mU*mA”, the TLR7 signal (NF-kB luciferase) (% of resiquimod alone) in the series with LINC-PINT [1] was 32.5. The TLR8 potentiation (NF-kB luciferase) (fold of resiquimod alone) with LINC-PINT [2] came out at 0.88.
In the series with LINC-PINT [1], “mC*mA*mA*mG*mC*dC*dC*dC*dA*dG*dC*dG*dT*dT*dC*mC*mU*mC*mC*mG” registered a TLR7 signal (NF-kB luciferase) (% of resiquimod alone) of 45.2. Further, in the series with LINC-PINT [2], the TLR8 potentiation (NF-kB luciferase) (fold of resiquimod alone) was found to be 2.74.
For “mC*mA*mC*mC*mC*dT*dT*dC*dT*dC*dT*dC*dT*dG*dG*mU*mC*mC*mC*mA”, the TLR7 signal (NF-kB luciferase) (% of resiquimod alone) with LINC-PINT [1] is 73.3. The TLR8 potentiation (NF-kB luciferase) (fold of resiquimod alone) in the series with LINC-PINT [2] turned out to be 1.85.
In the series with LINC-PINT [1], “mC*mA*mC*mU*mG*dT*dA*dT*dT*dT*dT*dA*dT*dT*dA*mC*mA*mG*mA*mA” came in with a TLR7 signal (NF-kB luciferase) (% of resiquimod alone) of 58.1. The TLR8 potentiation (NF-kB luciferase) (fold of resiquimod alone) with LINC-PINT [2] worked out at 2.67.
“mC*mA*mU*mC*mC*dC*dT*dT*dC*dT*dG*dC*dT*dG*dC*mC*mA*mA*mG*mC” gave a TLR7 signal (NF-kB luciferase) (% of resiquimod alone) with LINC-PINT [1] of 54.3. Also, the TLR8 potentiation (NF-kB luciferase) (fold of resiquimod alone) with LINC-PINT [2] was 2.95.
Regarding “mC*mC*mA*mU*mC*dC*dC*dT*dT*dC*dT*dG*dC*dT*dG*mC*mC*mA*mA*mG”, the TLR7 signal (NF-kB luciferase) (% of resiquimod alone) in the series with LINC-PINT [1] was 52.6. Moreover, the TLR8 potentiation (NF-kB luciferase) (fold of resiquimod alone) in the series with LINC-PINT [2] worked out at 2.38.
As to “mC*mC*mC*mU*mA*dA*dT*dG*dC*dT*dT*dT*dC*dC*dT*mC*mU*mC*mC*mA”, the TLR7 signal (NF-kB luciferase) (% of resiquimod alone) with LINC-PINT [1] amounted to 58.4. In the series with LINC-PINT [2], the TLR8 potentiation (NF-kB luciferase) (fold of resiquimod alone) is 2.7.
With “mC*mC*mC*mU*mU*dC*dT*dC*dT*dC*dT*dG*dG*dT*dC*mC*mC*mA*mU*mC”, in the series with LINC-PINT [1], the TLR7 signal (NF-kB luciferase) (% of resiquimod alone) was 49.6. Besides, the TLR8 potentiation (NF-kB luciferase) (fold of resiquimod alone) with LINC-PINT [2] came out at 2.6.
The corresponding values for “mC*mC*mU*mA*mU*dT*dA*dA*dA*dA*dA*dA*dA*dT*dT*mU*mA*mU*mA*mC” are 109 and 2.19.
In the case of “mC*mC*mU*mU*mC*dT*dC*dT*dC*dT*dG*dG*dT*dC*dC*mC*mA*mU*mC*mC”, in the series with LINC-PINT [1], the TLR7 signal (NF-kB luciferase) (% of resiquimod alone) worked out at 60.9. In the series with LINC-PINT [2], the TLR8 potentiation (NF-kB luciferase) (fold of resiquimod alone) stood at 3.01.
For “mC*mC*mU*mU*mC*dT*dG*dC*dT*dG*dC*dC*dA*dA*dG*mC*mC*mC*mC*mA”, the TLR7 signal (NF-kB luciferase) (% of resiquimod alone) with LINC-PINT [1] came out at 85.6. In addition, the TLR8 potentiation (NF-kB luciferase) (fold of resiquimod alone) with LINC-PINT [2] is 1.45.
The corresponding values for “mC*mU*mC*mU*mC*dT*dG*dG*dT*dC*dC*dC*dA*dT*dC*mC*mC*mU*mU*mC” are 85 and 2.73.
The matching figures for “mC*mU*mU*mC*mU*dC*dT*dC*dT*dG*dG*dT*dC*dC*dC*mA*mU*mC*mC*mC”: 56.2 and 2.92.
For “mC*mU*mU*mU*mA*dT*dA*dT*dT*dA*dC*dA*dA*dA*dG*mC*mU*mA*mC*mU”, the TLR7 signal (NF-kB luciferase) (% of resiquimod alone) with LINC-PINT [1] was 54.8. Besides, the TLR8 potentiation (NF-kB luciferase) (fold of resiquimod alone) with LINC-PINT [2] amounted to 2.11.
Substance “mG*mA*mU*mG*mG*dT*dT*dC*dC*dA*dG*dT*dC*dC*dC*mU*mC*mU*mU*mC” yielded a TLR7 signal (NF-kB luciferase) (% of resiquimod alone) with LINC-PINT [1] of 22.3. Besides, the TLR8 potentiation (NF-kB luciferase) (fold of resiquimod alone) with LINC-PINT [2] turned out to be 0.84.
In turn, “mG*mC*mA*mA*mG*dG*dC*dA*dG*dA*dG*dA*dA*dA*dC*mU*mC*mC*mA*mG” had a TLR7 signal (NF-kB luciferase) (% of resiquimod alone) with LINC-PINT [1] of 20. Moreover, the TLR8 potentiation (NF-kB luciferase) (fold of resiquimod alone) with LINC-PINT [2] came out at 1.45.
The matching figures for “mG*mC*mG*mU*mA*dG*dT*dT*dT*dC*dT*dC*dT*dT*dC*mC*mU*mC*mC*mC”: 27.2 and 1.86.
In the series with LINC-PINT [1], “mG*mG*mG*mU*mC*dT*dC*dC*dT*dC*dC*dA*dC*dA*dC*mC*mC*mU*mU*mC” yielded a TLR7 signal (NF-kB luciferase) (% of resiquimod alone) of 21.5. The TLR8 potentiation (NF-kB luciferase) (fold of resiquimod alone) with LINC-PINT [2] amounted to 0.87.
The matching figures for “mG*mG*mU*mC*mC*dC*dA*dT*dC*dC*dC*dT*dT*dC*dT*mG*mC*mU*mG*mC”: 20.8 and 1.28.
The matching figures for “mG*mG*mU*mC*mU*dC*dC*dT*dC*dC*dA*dC*dA*dC*dC*mC*mU*mU*mC*mU”: 23.7 and 1.29.
For the substance “mG*mU*mC*mC*mC*dA*dT*dC*dC*dC*dT*dT*dC*dT*dG*mC*mU*mG*mC*mC”, the TLR7 signal (NF-kB luciferase) (% of resiquimod alone) with LINC-PINT [1] was determined as 22.5. Moreover, in the series with LINC-PINT [2], the TLR8 potentiation (NF-kB luciferase) (fold of resiquimod alone) was determined as 1.37.
The corresponding values for “mG*mU*mC*mC*mG*dT*dA*dC*dC*dT*dC*dC*dA*dC*dC*mC*mA*mC*mC*mG” are 22.8 and 1.7.
The matching figures for “mG*mU*mC*mU*mC*dC*dT*dC*dC*dA*dC*dA*dC*dC*dC*mU*mU*mC*mU*mC”: 25 and 1.98.
The matching figures for “mG*mU*mU*mC*mA*dG*dT*dC*dA*dG*dA*dT*dC*dG*dC*mU*mG*mG*mG*mA”: 17.5 and 1.55.
As for “mU*mA*mU*mU*mC*dA*dT*dA*dT*dT*dT*dT*dT*dA*dT*mU*mU*mC*mA*mG”, the TLR7 signal (NF-kB luciferase) (% of resiquimod alone) with LINC-PINT [1] is 87.1. Further, the TLR8 potentiation (NF-kB luciferase) (fold of resiquimod alone) with LINC-PINT [2] stood at 4.47.
The matching figures for “mU*mC*mC*mC*mA*dA*dC*dT*dC*dT*dT*dC*dT*dA*dA*mC*mU*mC*mG*mU”: 40.8 and 3.7.
The corresponding values for “mU*mC*mC*mC*mA*dT*dC*dC*dC*dT*dT*dC*dT*dG*dC*mU*mG*mC*mC*mA” are 43.1 and 3.95.
The matching figures for “mU*mC*mU*mC*mU*dC*dT*dG*dG*dT*dC*dC*dC*dA*dT*mC*mC*mC*mU*mU”: 43.8 and 3.68.
The substance “mU*mC*mU*mC*mU*dG*dG*dT*dC*dC*dC*dA*dT*dC*dC*mC*mU*mU*mC*mU” displayed a TLR7 signal (NF-kB luciferase) (% of resiquimod alone) with LINC-PINT [1] of 78.2. Further, in the series with LINC-PINT [2], the TLR8 potentiation (NF-kB luciferase) (fold of resiquimod alone) came to 5.44.
The matching figures for “mU*mC*mU*mG*mG*dT*dC*dC*dC*dA*dT*dC*dC*dC*dT*mU*mC*mU*mG*mC”: 29.4 and 3.36.
Regarding “mU*mG*mA*mC*mA*dA*dA*dA*dC*dA*dA*dT*dA*dA*dT*mA*mA*mC*mA*mG”, the TLR7 signal (NF-kB luciferase) (% of resiquimod alone) with LINC-PINT [1] worked out at 36.7. Besides, in the series with LINC-PINT [2], the TLR8 potentiation (NF-kB luciferase) (fold of resiquimod alone) came to 1.31.
The matching figures for “mU*mG*mA*mC*mA*dT*dT*dT*dC*dG*dT*dG*dG*dC*dT*mC*mC*mU*mA*mC”: 33.6 and 1.73.

The values above are taken from the OligoGym collection.
